Patent EP1001761B1, “USE OF CHOL[…] TREATING ATTENTION DEFICIT DISORDERS” (priority 1997, dated 1999)
Structures can show the parent of a compound that is named as a salt.

Experiments:
[1] = system: patients with ADD; test: treatment of two ADD patients, measured by ANT (Amsterdam Neuropsychological Tests), reaction times for different tasks; type: in vivo; settings: for After: mean / After: miss (Missed task) / After: Fa (Failed attempt): after treatment
Text: The protocol in this case is first a baseline testing before medication and retesting after 2 days on medication and then after a week repeated testing. Ecological scales were also used before and are now being evaluated after one week after two weeks etc. for a treatment of one month duration.

[2] = solubility in water; type: physicochemical; settings: room temperature
Procedure: Galantamine and its acid addition salts form crystals. […] If necessary, pharmaceutically-acceptable suspension aids may be employed. Typically, such a suspension will be employed at a concentration of 0.1-50 mg/ml, such as 1-50 mg/ml, more commonly 5-40 mg/ml, for example, 5-30 mg/ml or 10-40 mg/ml, such as 10-30 mg/ml, especially 20-30 mg/ml of galantamine.

SMILES | improvement in attention (reduction in time to complete certain tasks and with fewer errors), normalized data, error analysis ([1]; two patients, 2.5 mg 3 times a day) | After: mean ([1]; Patient A, task Baseline) [ms] | After: mean ([1]; Patient A, task Focused Att.) [ms] | After: miss (Missed task) ([1]; Patient A, task Focused Att.) | After: Fa (Failed attempt) ([1]; Patient A, task GoNoGo) | After: mean ([1]; Patient A, task GoNoGo) [ms] | After: miss (Missed task) ([1]; Patient A, task GoNoGo) | After: Fa (Failed attempt) ([1]; Patient A, task Sustained Att.) | After: mean ([1]; Patient A, task Sustained Att.) [ms] | After: miss (Missed task) ([1]; Patient A, task Sustained Att.) | After: mean ([1]; Patient B, task Baseline) [ms] | After: mean ([1]; Patient B, task Focused Att.) [ms] | After: miss (Missed task) ([1]; Patient B, task Focused Att.) | After: Fa (Failed attempt) ([1]; Patient B, task GoNoGo) | After: mean ([1]; Patient B, task GoNoGo) [ms] | After: miss (Missed task) ([1]; Patient B, task GoNoGo) | After: Fa (Failed attempt) ([1]; Patient B, task Sustained Att.) | After: mean ([1]; Patient B, task Sustained Att.) [ms] | After: miss (Missed task) ([1]; Patient B, task Sustained Att.) | solubility in water [2]
COc1ccc2c3c1O[C@H]1C[C@@H](O)C=C[C@@]31CCN(C)C2 [galantamine hydrobromide] | over 2.5 standard deviations |  |  |  |  |  |  |  |  |  |  |  |  |  |  |  |  |  |  | 
COc1ccc2c3c1O[C@H]1C[C@@H](O)C=C[C@@]31CCN(C)C2 [galantamine] |  | 727 | 1352 | 0 | 2 | 655 | 1 | 6 | 1222 | 4 | 780 | 1166 | 3 | 3 | 766 | 3 | 50 | 1152 | 20 | only sparingly soluble
